Experimental data: US6844435B2, “Heterocyclic compounds useful as inhibitors of tyrosine kinases” (Boehringer Ingelheim Pharmaceuticals, Inc., priority 2000, dated 2005)

melting point | SMILES
> 300 °C | Cn1c(Nc2c(Cl)cccc2Cl)nc2ccc3nc(-c4cccc(S(=O)(=O)N5CCN(C(=O)CO)CC5)c4)[nH]c(=O)c3c21 [Example 91]
161 to 166 °C | Cn1c(Nc2c(Cl)cccc2Cl)nc2ccc3nc(-c4csc(CC5CCCNC5)n4)[nH]c(=O)c3c21 (stereo not drawn) [Example 78]
290 °C (dec.) | Cn1c(Nc2c(Cl)cccc2Cl)nc2ccc3nc(-c4csc([C@H]5CCCN5)n4)[nH]c(=O)c3c21 [Example 98]
126 to 128 °C | CCCCCC1NC(=O)c2c(ccc3nc(Nc4c(Cl)cccc4Cl)n(C)c23)N1C (stereo not drawn) [Example 87]
315 to 317 °C (dec.) | C/C(=C\c1cc([N+](=O)[O-])cc([N+](=O)[O-])c1)c1nc2ccc3nc(Nc4c(Cl)cccc4Cl)n(C)c3c2c(=O)[nH]1
295 °C (dec.) | Cn1c(Nc2c(Cl)cccc2Cl)nc2ccc3nc(C(=O)N4CCCC4)[nH]c(=O)c3c21 [Example 52]
> 295 °C (dec.) | Cn1c(Nc2c(Cl)cccc2Cl)nc2ccc3nc(C4=CCC(C#N)C4)[nH]c(=O)c3c21 (stereo not drawn) [Example 69]
280 °C (dec.) | Cn1c(Nc2c(Cl)cccc2Cl)nc2ccc3nc(C(=O)c4ccccc4)[nH]c(=O)c3c21 [Example 60]
155 to 160 °C | Cn1c(Nc2c(Cl)cccc2Cl)nc2ccc3nc(-c4csc(CC5CCCN(C(=O)OCc6ccccc6)C5)n4)[nH]c(=O)c3c21 (stereo not drawn) [Example 76]
> 300 °C | Cn1c(Nc2c(Cl)cccc2Cl)nc2ccc3nc(-c4cc5ccccc5o4)[nH]c(=O)c3c21 [Example 39]
168 to 170 °C | Cn1c(Nc2c(Cl)cccc2Cl)nc2ccc3nc(C4=CC(N5CCN(C(=O)OC(C)(C)C)CC5)CC4)[nH]c(=O)c3c21 (stereo not drawn) [Example 65]
195 to 200 °C (dec.) | C/C(=C\c1cc(N)cc(N)c1)c1nc2ccc3nc(Nc4c(Cl)cccc4Cl)n(C)c3c2c(=O)[nH]1 [Example 99]
285 °C | Cn1c(Nc2c(Cl)cccc2Cl)nc2ccc3nc(C4=CC(O)CC4)[nH]c(=O)c3c21 (stereo not drawn) [Example 66]
197 to 205 °C | C/C(=C\c1cccc(CN)c1)c1nc2ccc3nc(Nc4c(Cl)cccc4Cl)n(C)c3c2c(=O)[nH]1 [Example 89]
> 290 °C | Cn1c(Nc2c(Cl)cccc2Cl)nc2ccc3nc(-c4cnc(-c5ccccc5)o4)[nH]c(=O)c3c21 [Example 26]
> 300 °C | Cn1c(Nc2c(Cl)cccc2Cl)nc2ccc3nc(-c4nc(-c5ccc(OC(F)(F)F)cc5)no4)[nH]c(=O)c3c21 [Example 32]
> 300 °C (dec.) | C/C(=C\c1cccc(N)c1)c1nc2ccc3nc(Nc4c(Cl)cccc4Cl)n(C)c3c2c(=O)[nH]1 [Example 84]
> 300 °C | Cc1ncc(-c2nc3ccc4nc(Nc5c(Cl)cccc5Cl)n(C)c4c3c(=O)[nH]2)o1 [Example 46]
265 to 268 °C | Cn1c(Nc2c(Cl)cccc2Cl)nc2ccc3nc(C(=O)NCCO)[nH]c(=O)c3c21 [Example 41]
> 300 °C | Cn1c(Nc2c(Cl)cccc2Cl)nc2ccc3nc(C(=O)c4c[nH]c5ccccc45)[nH]c(=O)c3c21 [Example 47]
> 300 °C | Cn1c(Nc2c(Cl)cccc2Cl)nc2ccc3nc(C4=CC(=O)CC4)[nH]c(=O)c3c21 [Example 81]
> 300 °C | C/C(=C\c1cc(N/C(=N\C(=O)OC(C)(C)C)NC(=O)OC(C)(C)C)cc(N/C(=N\C(=O)OC(C)(C)C)NC(=O)OC(C)(C)C)c1)c1nc2ccc3nc(Nc4c(Cl)cccc4Cl)[nH]c3c2c(=O)[nH]1 [Example 103]

melting point | SMILES
185 to 192 °C | Cn1c(Nc2c(Cl)cccc2Cl)nc2ccc3nc(Nc4ccccc4)[nH]c(=O)c3c21 [Example 31]
170 °C (dec.) | C/C(=C\c1cccc(NC(=N)N)c1)c1nc2ccc3nc(Nc4c(Cl)cccc4Cl)n(C)c3c2c(=O)[nH]1 [Example 101]
257 to 260 °C | CCCCCc1nc2ccc3nc(Nc4c(Cl)cccc4Cl)n(C)c3c2c(=O)[nH]1 [Example 64]
206 to 208 °C | Cn1c(Nc2c(Cl)cccc2Cl)nc2ccc3nc(C4=CCN(C(=O)OC(C)(C)C)C4)[nH]c(=O)c3c21 [Example 83]
163 to 169 °C | Cn1c(Nc2c(Cl)cccc2Cl)nc2ccc3nc(-c4csc([C@@H]5CCCC[C@H]5NC(=O)OCc5ccccc5)n4)[nH]c(=O)c3c21 [Example 75]
278 °C (dec.) | C/C=C(\C)c1nc2ccc3nc(Nc4c(Cl)cccc4Cl)n(C)c3c2c(=O)[nH]1 [Example 45]
200 °C (dec.) | Cn1c(Nc2c(Cl)cccc2Cl)nc2ccc3nc(-c4cccc(N)c4)[nH]c(=O)c3c21 [Example 19]
> 300 °C | Cn1c(Nc2c(Cl)cccc2Cl)nc2ccc3nc(C(=O)O)[nH]c(=O)c3c21 [Example 42]
279 °C (dec.) | CC(C)c1nc2ccc3nc(Nc4c(Cl)cccc4Cl)n(C)c3c2c(=O)[nH]1 [Example 49]
283 to 284 °C | Cn1c(Nc2c(Cl)cccc2Cl)nc2ccc3nc(C4CCCC4)[nH]c(=O)c3c21 [Example 50]
246 °C | Cn1c(Nc2c(Cl)cccc2Cl)nc2ccc3nc(-c4ccc(S(=O)(=O)N5CCNCC5)cc4)[nH]c(=O)c3c21 [Example 100]
265 °C (dec.) | Cn1c(Nc2c(Cl)cccc2Cl)nc2ccc3nc(C4=CC5CNCC5C4)[nH]c(=O)c3c21 (stereo not drawn) [Example 95]
290 to 292 °C | C/C(=C\c1ccccc1[N+](=O)[O-])c1nc2ccc3nc(Nc4c(Cl)cccc4Cl)n(C)c3c2c(=O)[nH]1 [Example 71]
> 300 °C | Cn1c(Nc2c(Cl)cccc2Cl)nc2ccc3nc(-c4cccnc4)[nH]c(=O)c3c21 [Example 30]
240 °C (dec.) | Cn1c(Nc2c(Cl)cccc2Cl)nc2ccc3nc(-c4csc(-c5cccc(N)c5)n4)[nH]c(=O)c3c21 [Example 36]
> 215 °C (dec.) | CC(=O)C1CC=C(c2nc3ccc4nc(Nc5c(Cl)cccc5Cl)n(C)c4c3c(=O)[nH]2)C1 (stereo not drawn) [Example 72]
278 to 284 °C (dec.) | C=Cc1nc2ccc3nc(Nc4c(Cl)cccc4Cl)n(C)c3c2c(=O)[nH]1 [Example 21]
> 300 °C | [H]/N=C(/N)c1cccc(/C=C(\C)c2nc3ccc4nc(Nc5c(Cl)cccc5Cl)n(C)c4c3c(=O)[nH]2)c1 [Example 92]
304 to 310 °C (dec.) | Cc1ccoc1-c1nc2ccc3nc(Nc4c(Cl)cccc4Cl)n(C)c3c2c(=O)[nH]1 [Example 58]
> 300 °C | C=C(C)c1nc2ccc3nc(Nc4c(Cl)cccc4Cl)n(C)c3c2c(=O)[nH]1 [Example 33]
190 °C | Cn1c(Nc2c(Cl)cccc2Cl)nc2ccc3nc(-c4ccc(S(=O)(=O)N5CCN(C(=O)OC(C)(C)C)CC5)cc4)[nH]c(=O)c3c21 [Example 96]
> 300 °C | Cn1c(Nc2c(Cl)cccc2Cl)nc2ccc3nc(-c4ncc[nH]4)[nH]c(=O)c3c21 [Example 25]

melting point | SMILES
173 to 174 °C | Cn1c(Nc2c(Cl)cccc2Cl)nc2ccc3nc(C4=CC(N5CCNCC5)CC4)[nH]c(=O)c3c21 (stereo not drawn) [Example 48]
295 to 300 °C (dec.) | Cn1c(Nc2c(Cl)cccc2Cl)nc2ccc3nc(-c4csc([C@@H]5CCCC[C@H]5N)n4)[nH]c(=O)c3c21 [Example 77]
209 °C | Cn1c(Nc2c(Cl)cccc2Cl)nc2ccc3nc(-c4csc([C@H]5CCCN5C(=O)OCc5ccccc5)n4)[nH]c(=O)c3c21 [Example 73]
289 to 292 °C | Cn1c(Nc2c(Cl)cccc2Cl)nc2ccc3nc(-c4ccc(-c5ccccc5[N+](=O)[O-])o4)[nH]c(=O)c3c21 [Example 55]
295 °C (dec.) | Cn1c(Nc2c(Cl)cccc2Cl)nc2ccc3nc(C4=CCCC4)[nH]c(=O)c3c21 [Example 35]
> 300 °C | Cn1c(Nc2c(Cl)cccc2Cl)nc2ccc3nc(-c4ccccn4)[nH]c(=O)c3c21 [Example 29]
198 to 204 °C | CNc1nc2ccc3nc(Nc4c(Cl)cccc4Cl)n(C)c3c2c(=O)[nH]1 [Example 62]
210 °C | Cn1c(Nc2c(Cl)cccc2Cl)nc2ccc3nc(-c4cccc(S(=O)(=O)N5CCNCC5)c4)[nH]c(=O)c3c21 [Example 68]
215 °C (dec.) | CN1CCN(S(=O)(=O)c2cccc(-c3nc4ccc5nc(Nc6c(Cl)cccc6Cl)n(C)c5c4c(=O)[nH]3)c2)CC1 [Example 61]
251 °C (dec.) | CCNC(=O)Nc1cccc(-c2nc3ccc4nc(Nc5c(Cl)cccc5Cl)n(C)c4c3c(=O)[nH]2)c1 [Example 20]
> 300 °C | CCc1nc2ccc3nc(Nc4c(Cl)cccc4Cl)n(C)c3c2c(=O)[nH]1 [Example 53]
> 300 °C | Cc1ccccc1-c1nc2ccc3nc(Nc4c(Cl)cccc4Cl)n(C)c3c2c(=O)[nH]1 [Example 38]
> 300 °C | Cn1c(Nc2c(Cl)cccc2Cl)nc2ccc3nc(-c4nc5ccccc5[nH]4)[nH]c(=O)c3c21 [Example 43]
> 300 °C | Cn1c(Nc2c(Cl)cccc2Cl)nc2ccc3nc(-c4cccs4)[nH]c(=O)c3c21 [Example 22]
> 300 °C | Cn1c(Nc2c(Cl)cccc2Cl)nc2ccc3nc(-c4ccoc4)[nH]c(=O)c3c21 [Example 8, 2-(2,6-Dichlorophenylamino)-1-methyl-7-furan-3-yl-1,8-dihydro-9H-imidazo[4,5-f]quinazoline-9-one]
> 250 °C (dec.) | Cn1c(Nc2c(Cl)cccc2Cl)nc2ccc3nc(Cc4ccccc4)[nH]c(=O)c3c21 [Example 34]
280 °C | Cn1c(Nc2c(Cl)cccc2Cl)nc2ccc3nc(-c4scc(S(C)(=O)=O)c4Cl)[nH]c(=O)c3c21 [Example 23]
> 300 °C | CC(C)=C(C)c1nc2ccc3nc(Nc4c(Cl)cccc4Cl)n(C)c3c2c(=O)[nH]1 [Example 63]
280 to 283 °C | Cn1c(Nc2c(Cl)cccc2Cl)nc2ccc3nc(-c4ccc(Br)o4)[nH]c(=O)c3c21 [Example 57]
310 to 313 °C | C/C(=C\c1ccccc1N)c1nc2ccc3nc(Nc4c(Cl)cccc4Cl)n(C)c3c2c(=O)[nH]1 [Example 80]
275 to 277 °C | CCOC(=O)c1nc2ccc3nc(Nc4c(Cl)cccc4Cl)n(C)c3c2c(=O)[nH]1 [Example 37]
255 °C | CN1CCC=C(c2nc3ccc4nc(Nc5c(Cl)cccc5Cl)n(C)c4c3c(=O)[nH]2)C1 [Example 54]
